# PMC7875911 (Frontiers in Pharmacology, 2021)
# Key:
# [1] = test system: Cav1.2, Cav1.3, Cav2.1, and Cav2.2
# Experimental: (§1) Human embryonic kidney (HEK293T) cells containing the SV40 Large T-antigen were cultured at 37°C, 5% CO2 in Dulbecco’s Modified Eagle’s Medium (DMEM, Invitrogen Life Technologies, Australia), supplemented with 10% fetal bovine serum (FBS, Bovigen, Australia), 1% GlutaMAX and penicillin-streptomycin (Invitrogen, Australia). […]
# (§2) Depolarization-activated Ca^2+ currents (ICa) in transfected HEK293 cells were recorded in the whole-cell patch clamp configuration. Data were recorded using a MultiClamp 700B amplifier, digitized with a DigiData1440 and controlled using Clampex10.7 software (Molecular Devices, United States). […]
# (§3) Statistical significance (p < 0.05) was determined using unpaired Student’s t-test or 1-way ANOVA followed by a Tukey multiple comparison. […]
# (§4) Numerous HVA Cav channel isoforms are present in rat DRG neurons. […] We transiently co-transfected the individual Cav channel α-subunits of interest together with β3 and α2δ1 subunits in HEK293 cells and measured whole-cell I Ca currents by patch clamp. […]
# mCav1.2 = test: Whole-cell patch clamp, recombinant mCav1.2 in HEK293; assay type: cell-based, mouse; details: 10 µM
# Experimental: as §1, §2, §3, §4
# hNav1.7 = hNav1.7 (Homo sapiens, UniProt Q15858); assay type: cell-based
# Description: An EPC-9 patch-clamp amplifier and corresponding PULSE software from HEKA Electronik (Lambrecht/Pfalz, Germany) were used to make recordings. Currents were sampled at 50 kHz and recorded on a hard disk. Borosilicate glass from AM Systems, Everett, WA, United States were used for patch pipettes. The input resistance of the pipettes ranged from 2 to 4 MΩ. […] A built-in procedure of the HEKA amplifier compensated for the capacitive transient currents. A −P/6 protocol was utilized to subtract leak current online. I Ca was generated with the recording protocol which included a depolarization from a holding potential of −80 mV to 0 mV for 10 ms every 30 s. I Na was generated through a recording protocol which included a step depolarization from a holding potential of −80 mV to 0 mV for 10 ms at a frequency of 0.1 Hz. Cells were perfused with the test compound via a pressure driven perfusion system (AutoMate Scientific, United States).
# [2] = test system: mouse models of acute postsurgical pain; details: in vivo; cited from earlier work
# animal pain models = details: in vivo, cited from earlier work
# Description: […]. Nav channels are structurally related to voltage-gated calcium (Cav) channels, Cav1 and Cav2. […] […].
# Chain of hNav1.7 (Q15858 whole entry): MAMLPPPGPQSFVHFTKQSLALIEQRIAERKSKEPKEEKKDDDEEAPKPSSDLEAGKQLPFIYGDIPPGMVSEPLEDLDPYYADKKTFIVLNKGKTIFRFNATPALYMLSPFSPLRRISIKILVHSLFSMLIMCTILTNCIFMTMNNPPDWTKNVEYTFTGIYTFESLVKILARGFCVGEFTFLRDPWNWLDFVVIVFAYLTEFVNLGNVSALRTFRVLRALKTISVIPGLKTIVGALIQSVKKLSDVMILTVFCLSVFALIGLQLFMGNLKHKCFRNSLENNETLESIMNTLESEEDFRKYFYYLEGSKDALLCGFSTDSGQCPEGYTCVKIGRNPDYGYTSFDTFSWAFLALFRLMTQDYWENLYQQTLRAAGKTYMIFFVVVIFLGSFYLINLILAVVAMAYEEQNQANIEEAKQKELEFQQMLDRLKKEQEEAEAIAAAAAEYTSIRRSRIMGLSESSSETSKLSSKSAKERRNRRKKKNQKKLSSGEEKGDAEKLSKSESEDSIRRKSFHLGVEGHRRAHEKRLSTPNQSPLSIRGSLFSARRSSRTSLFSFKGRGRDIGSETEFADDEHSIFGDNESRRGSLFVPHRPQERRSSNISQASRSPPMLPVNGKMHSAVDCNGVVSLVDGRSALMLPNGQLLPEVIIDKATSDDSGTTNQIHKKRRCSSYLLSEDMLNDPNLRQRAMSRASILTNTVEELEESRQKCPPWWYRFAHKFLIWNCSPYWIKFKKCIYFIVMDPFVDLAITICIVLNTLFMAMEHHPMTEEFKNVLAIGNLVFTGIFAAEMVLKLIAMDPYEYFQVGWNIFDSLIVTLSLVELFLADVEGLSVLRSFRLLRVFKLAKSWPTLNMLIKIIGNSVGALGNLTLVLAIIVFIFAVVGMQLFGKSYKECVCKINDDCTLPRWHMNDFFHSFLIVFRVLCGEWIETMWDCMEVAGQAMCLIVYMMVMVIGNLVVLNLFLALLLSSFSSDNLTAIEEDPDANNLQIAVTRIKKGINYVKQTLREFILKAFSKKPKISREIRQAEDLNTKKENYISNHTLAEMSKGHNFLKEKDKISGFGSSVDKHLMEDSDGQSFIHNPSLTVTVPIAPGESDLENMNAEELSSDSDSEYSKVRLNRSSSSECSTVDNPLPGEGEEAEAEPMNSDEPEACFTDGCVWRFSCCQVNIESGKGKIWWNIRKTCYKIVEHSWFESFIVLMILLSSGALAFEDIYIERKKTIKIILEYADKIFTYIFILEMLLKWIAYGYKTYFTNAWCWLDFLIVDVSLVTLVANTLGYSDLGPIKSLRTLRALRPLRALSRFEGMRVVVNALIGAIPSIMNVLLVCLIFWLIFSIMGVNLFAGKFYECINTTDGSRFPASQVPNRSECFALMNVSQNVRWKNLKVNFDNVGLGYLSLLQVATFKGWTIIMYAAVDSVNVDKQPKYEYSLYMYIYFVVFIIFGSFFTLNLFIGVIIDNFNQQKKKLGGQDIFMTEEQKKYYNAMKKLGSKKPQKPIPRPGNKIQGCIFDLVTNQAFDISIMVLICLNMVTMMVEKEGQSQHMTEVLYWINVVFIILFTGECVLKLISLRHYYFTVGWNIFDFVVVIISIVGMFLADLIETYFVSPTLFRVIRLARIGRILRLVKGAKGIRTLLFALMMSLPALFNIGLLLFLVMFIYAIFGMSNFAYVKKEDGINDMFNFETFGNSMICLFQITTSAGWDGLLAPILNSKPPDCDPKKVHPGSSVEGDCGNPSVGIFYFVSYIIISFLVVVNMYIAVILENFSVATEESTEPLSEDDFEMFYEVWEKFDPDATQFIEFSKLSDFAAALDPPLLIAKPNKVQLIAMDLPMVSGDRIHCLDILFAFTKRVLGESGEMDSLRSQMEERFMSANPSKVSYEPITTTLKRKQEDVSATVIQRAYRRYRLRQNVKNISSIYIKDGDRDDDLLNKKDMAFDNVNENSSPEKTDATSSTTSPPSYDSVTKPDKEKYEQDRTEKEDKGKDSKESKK
smiles,measurement,setting,value
"CSCC[C@@H]1NC(=O)[C@H](Cc2ccc(O)cc2)NC(=O)[C@H](CCCNC(=N)N)NC(=O)[C@@H](NC(=O)[C@@H](N)CC(=O)O)CSSC[C@@H]2NC(=O)[C@@H]3CSSC[C@@H](C(=O)N[C@@H](C)C(=O)N[C@@H](Cc4c[nH]c5ccccc45)C(=O)N[C@@H](CC(=O)O)C(=O)N[C@@H](Cc4ccccc4)C(=O)N[C@H](C(=O)N[C@@H](Cc4ccccc4)C(=O)N[C@H](C(=O)O)[C@@H](C)O)[C@@H](C)O)NC(=O)[C@H](Cc4ccc(O)cc4)NC(=O)[C@H](CCCCN)NC(=O)[C@H](CCSC)NC(=O)[C@H](CCCCN)NC(=O)[C@H](CCCNC(=N)N)NC(=O)[C@H](CCCCN)NC(=O)[C@H](CSSC[C@H](NC(=O)[C@H](CC(=O)O)NC(=O)CNC(=O)[C@H](Cc4ccccc4)NC1=O)C(=O)N[C@@H](CCC(=O)O)C(=O)N[C@@H](CCCCN)C(=O)N[C@@H](CC(=O)O)C(=O)N[C@@H](CCC(=O)O)C(=O)N[C@@H](CC(=O)O)C(=O)N3)NC(=O)CNC(=O)[C@H](CC(C)C)NC(=O)[C@H](Cc1c[nH]cn1)NC(=O)[C@H](CCCCN)NC2=O [Pn3a, µ-Theraphotoxin-Pn3a]",reversibility of block on washout,[1],fully reversible upon washout
same,inhibition of Cav1.2-mediated current,mCav1.2,70.3 ± 1.5%
same,concentration at which inhibition is reliably distinguished from current rundown,hNav1.7,> 10 nM
same,difference in hNav1.7 potency from reported value,hNav1.7,~30 fold
same,reversibility of hNav1.7 inhibition,hNav1.7,virtually irreversible at higher concentrations
same,antinociceptive behavior in acute postsurgical pain (in words),[2],causes antinociceptive behavior
same,analgesia/anti-allodynia on co-administration with opioids (in words),animal pain models; 1 mg/kg,significant analgesia/anti-allodynia
same,analgesia in various animal pain models (in words),animal pain models,fails to produce analgesia
same,effect in rodent models of acute nociception or inflammatory pain (in words),animal pain models,ineffective
